Measurements taken from US20260248809A1, “ESTRADIOL PRODRUGS AND METHODS OF USE THEREOF” (UNIVERSITY OF MARYLAND, BALTIMORE, priority 2022, published 2026).

What was measured:
Format in all cases: in vivo, mouse
[1] = system: mice; assay: Acoustic startle response after traumatic foot shock stress; conditions: acute foot shock stress, 10 mm silastic implant
Description: Determine the role of E2 in traumatic stress-induced changes in startle response in males and females. Heightened startle reactivity is a DSM diagnostic criteria for PTSD. Individuals suffering from PTSD frequently report subjective elevations in startle response and objective studies have described increased startle reactivity in individuals with PTSD. Moreover, physiological startle response is correlated with the severity of self-reported hyperarousal symptom domains and attenuated by interventions that improve PTSD symptoms. In rodents, like humans, the startle response can be elicited by acoustic stimuli (acoustic startle response, ASR) and involves eyelid closure and skeletal muscle contractions. While ASR is frequently assessed via the eye blink reflex in humans, it can be accurately assayed via whole-body movements in rodents. Importantly, elevated ASR has been reported in rodents following traumatic stress, including electrical shock and social defeat stress. ASR is utilized as a measure of hyperarousal in mice following traumatic stress. Similar to previously described methods, ASR is assessed following acute foot shock stress. Baseline ASR is assessed over 10 startle stimuli (110 dB, pseudo-randomized average inter-stimulus interval of 30 sec). […] Changes in ASR are measured 24 hours after shock using the same startle protocol. […]

[2] = Body, testis and seminal vesicle weights after hormonal treatments
Method: For the chronic administration paradigms, silastic tubes (1.02 mm inner diameter×2.16 mm outer diameter) were filled with testosterone (10 mm) or 17β-Estradiol (E2; 1,3 and 10 mm; Sigma-Aldrich, St. Louis, MO, USA). Silastic implants were primed in 0.9% saline at 37° C. overnight prior to their subcutaneous use. Letrozole (1 mg/kg/day; Sigma-Aldrich, St. Louis, MO, USA) was dissolved in propylene glycol (MP Biomedicals, Santa Ana, CA, USA) and administered through ALZET minipumps (Model 1002, 0.25 μl/hour, 14 days; Cupertino, CA, USA). DHED (synthesized using previously described methods) was dissolved in 0.9% saline and administered through ALZET minipumps (Model 1002, 0.25 μl/hour, 14 days; Cupertino, CA, USA) at a dose of […]. Flutamide was administered through 1.5 mg slow-release subcutaneous pellets (Innovative Research of America, Sarasota, FL, USA). For acute administration, 17β-Estradiol (E2; 10 and […]) was dissolved in sesame oil (4 ml/kg, s.c.; Sigma-Aldrich, St. Louis, MO, USA).
Subcutaneous implantations were performed during the same time as the orchiectomies. The surgical area was thoroughly cleaned with Betadine solution (10% povidone-iodine surgical scrub) followed by 70% ethanol. A small, approximately 1-cm incision was made between the scapulae using a pair of small sterile surgical scissors. Hemostats were then inserted and spread laterally to the incision to create a cavity in the subcutaneous space in which ALZET mini-osmotic pumps or silastic implants were inserted for continuous drug/vehicle delivery. The skin was closed with suturing.

[3] = system: male mice; assay: Acquisition, extinction and reinstatement of cued (Pavlovian) fear; conditions: non-stressed orchiectomized males, 10 mm silastic implant
Method: Determine the role of E2 in the normal acquisition, extinction, and reinstatement of cued (Pavlovian) fear responses in males. The effect of orchiectomy on the acquisition, extinction, and reinstatement of fear in non-stressed male animals is determined. It has previously been reported that orchiectomy enhances tone conditioned freezing in male mice, which was prevented with systemic testosterone administration. It has also been reported that orchiectomy delayed extinction of fear responses in male rats. The role of E2 is known in mediating fear responses, extinction, and related cognitive functions in female rodents. Fear conditioning takes place in Coulbourn shuttle boxes. The floor of the chambers consists of parallel rods connected to a Coulbourn shock source that delivers foot shocks. A speaker mounted on the top of the chamber delivers an acoustic conditioned stimulus (pure tone). […] Mice are placed in the chamber for a 3 min habituation period, wherein baseline freezing to the novel context will be assessed. […] One week later, mice are assessed for reinstatement of the conditioned fear. […] Time spent freezing across CS presentations during the extinction procedure (Days 2 and 3) is assessed with Coulbourn automated FreezeFrame software. […] If differences between the groups are detected, then whether these effects are due to altered shock sensitivity, are assessed.

SMILES | increased startle after stress+orchiectomy [1] | body weight ([2]; chronic treatment) | seminal vesicle weight ([2]; chronic treatment) | testis weight ([2]; chronic treatment) | orchiectomy-enhanced fear conditioning and reduced rate of extinction [3] | relative seminal vesicle weights ([2]; s.c. treatment, compared to vehicle (saline) control)
C[C@]12CC[C@H]3[C@@H](CCC4=CC(=O)CC[C@@]43C)[C@@H]1CC[C@@H]2O [Testosterone, testosterone] | recoverable | increased body weight | reversed | decreased testis weight | prevented by testosterone | –
C[C@]12CC[C@@H]3c4ccc(O)cc4CC[C@H]3[C@@H]1CC[C@@H]2O [Example E2, 17β-Estradiol] | recoverable | increased body weight | increased | – | reverse this effect | significant increase
